This note sets out measurements from ChEMBL document CHEMBL4364273, “Discovery of SHR1653, a Highly Potent and Selective OTR Antagonist with Improved Blood-Brain Barrier Penetration” (ACS Med Chem Lett, 2019).

Usually IC50 stands for the midpoint of a concentration-inhibition curve. Usually AUC(0-t) stands for the area under the concentration-time curve up to a stated or last time point. Read a low AUC(0-t) as low exposure. As a reminder, the Cmax is the peak of the concentration-time curve. Broadly, the fraction unbound is free concentration divided by total concentration. A word on the clearance: it is the rate of elimination divided by the concentration. For orientation: half-life means the time in which the quantity being followed falls by half. What is called inhibition in vivo is the change of the read-out against control, counted positive when it falls.

Vasopressin V1a receptor, sequence (P37288 whole entry): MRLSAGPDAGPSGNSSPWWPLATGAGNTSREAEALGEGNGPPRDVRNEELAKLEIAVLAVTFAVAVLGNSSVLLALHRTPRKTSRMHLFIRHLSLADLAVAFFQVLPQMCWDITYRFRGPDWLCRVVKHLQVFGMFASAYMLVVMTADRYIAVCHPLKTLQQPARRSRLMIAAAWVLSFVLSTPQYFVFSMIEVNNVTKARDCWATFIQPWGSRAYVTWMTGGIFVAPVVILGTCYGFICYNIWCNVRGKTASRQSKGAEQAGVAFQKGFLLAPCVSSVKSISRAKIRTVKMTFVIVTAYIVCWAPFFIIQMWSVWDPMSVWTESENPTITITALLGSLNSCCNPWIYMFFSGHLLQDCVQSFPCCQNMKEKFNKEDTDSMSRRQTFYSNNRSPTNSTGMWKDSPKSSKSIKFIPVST

The first data set has as its target T1, Vasopressin V1b receptor (Homo sapiens, UniProt P47901).
T1 sequence (P47901 whole entry): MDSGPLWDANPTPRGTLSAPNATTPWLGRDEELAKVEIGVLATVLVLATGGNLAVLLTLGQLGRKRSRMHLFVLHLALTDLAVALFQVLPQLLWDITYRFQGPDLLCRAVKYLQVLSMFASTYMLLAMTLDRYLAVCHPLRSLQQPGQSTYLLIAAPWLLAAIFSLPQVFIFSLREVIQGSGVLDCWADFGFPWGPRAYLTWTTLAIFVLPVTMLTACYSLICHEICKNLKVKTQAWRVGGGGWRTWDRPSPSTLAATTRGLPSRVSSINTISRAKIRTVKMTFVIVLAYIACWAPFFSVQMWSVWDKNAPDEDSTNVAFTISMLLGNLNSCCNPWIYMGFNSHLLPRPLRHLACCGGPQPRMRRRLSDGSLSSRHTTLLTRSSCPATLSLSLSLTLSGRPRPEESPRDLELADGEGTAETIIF
The experiment in a line: Antagonist activity at human vasopressin V1B receptor expressed in HEK293 cells assessed as decrease in vasopressin-stimulated calcium flux measured after 10 mins by Fluo-4 dye based microplate reader based assay. The data set is classed as functional, cell-based.
Settings: not given
Background: Calcium flux is commonly read through the fluorescence of an indicator in the cells.
For the molecule `COc1ccc(-n2c(CC#N)nnc2N2C[C@@H]3C[C@]3(c3ccc(F)cc3Cl)C2)cn1`, the half-inhibitory concentration (IC50) worked out at 44.4 µM.

System in the next data set: not listed separately
The experiment in a line: AUC (0 to 24 hrs) in anesthetized oxytocin-induced uterine contraction Sprague-Dawley rat model at 30 mg/kg, po. The data set is classed as ADME, organism-based. The arrangement: dose 30 mg/kg, time < 24 hr, route oral. The note with it: in vivo.
`COCc1nnc(N2CC(Oc3ccc(F)cc3Cl)C2)n1-c1ccc(OC)nc1`: the AUC(0-t) at 24 h was found to be 39500 ng·h/mL.

System in another data set: not listed separately
The experiment in a line: Cmax in Sprague-Dawley rat at 2 mg/kg, po measured for 24 hrs by LC-MS/MS analysis. The note with it: in vivo. The data set is classed as ADME, organism-based. The arrangement: dose 2 mg/kg, route oral.
The molecule `COCc1nnc(N2C[C@@H]3C[C@]3(c3cccc(F)c3Cl)C2)n1-c1ccc(OC)nc1` gave a Cmax of 15 ng/mL.
Still for that read-out and setting: the figure for `CCOCc1nnc(N2C[C@@H]3C[C@]3(c3ccc(F)cc3Cl)C2)n1-c1ccc(OC)nc1` is 135 ng/mL; for `COCc1nnc(N2CCC(c3ccc(F)cc3Cl)C2)n1-c1ccc(OC)nc1` (stereo not given) it is 204 ng/mL; for `COCc1nnc(N2CCC(c3ccc(F)cc3Cl)CC2)n1-c1ccc(OC)nc1` it is 96 ng/mL.

System in a further data set: not listed separately
The experiment in a line: AUC (0 to 24 hrs) in Sprague-Dawley rat at 2 mg/kg, po by LC-MS/MS analysis. The data set is classed as ADME, organism-based. Also noted: time < 24 hr, dose 2 mg/kg, route oral. As to conditions: in vivo.
In turn, `COCc1nnc(N2C[C@@H]3C[C@]3(c3cccc(F)c3Cl)C2)n1-c1ccc(OC)nc1` came in with an AUC(0-t) at 24 h of 34 ng·h/mL.
For the molecule `CCOCc1nnc(N2C[C@@H]3C[C@]3(c3ccc(F)cc3Cl)C2)n1-c1ccc(OC)nc1`, the exposure AUC(0-t) at 24 h is 1020 ng·h/mL.
Still for that read-out and setting: the figure for `COCc1nnc(N2CCC(c3ccc(F)cc3Cl)C2)n1-c1ccc(OC)nc1` (stereo not given) is 478 ng·h/mL; for `COCc1nnc(N2CCC(c3ccc(F)cc3Cl)CC2)n1-c1ccc(OC)nc1` it is 767 ng·h/mL.

System in a further data set: not listed separately
The experiment in a line: Unbound fraction in Sprague-Dawley rat plasma by LC-MS/MS analysis. It is filed as ADME, cell-free.
Settings: not given
On to `COCc1nnc(N2CC(Oc3ccc(F)cc3Cl)C2)n1-c1ccc(OC)nc1`, for which the free fraction (fraction unbound) came to 0.0664.

System in the next data set: not listed separately
As to the kind of experiment: Plasma concentration in Sprague-Dawley rat by LC-MS/MS analysis.
Settings: not given
The data set is classed as ADME, cell-free.
In turn, `COCc1nnc(N2CC(Oc3ccc(F)cc3Cl)C2)n1-c1ccc(OC)nc1` had a Cp of 699 ng/mL.

System in the next data set: not listed separately
As to the kind of experiment: Unbound fraction in Sprague-Dawley rat brain by LC-MS/MS analysis. The data set is classed as ADME, tissue-based.
Settings: not given
`COCc1nnc(N2CC(Oc3ccc(F)cc3Cl)C2)n1-c1ccc(OC)nc1` yielded a free fraction (fraction unbound) of 0.0165.

System in a further data set: not listed separately
The experiment in a line: Unbound brain-to-plasma concentration ratio in Sprague-Dawley rat by LC-MS/MS analysis. The note with it: read-out: K(p,uu,brain). The data set is classed as ADME, cell-free.
`COCc1nnc(N2CC(Oc3ccc(F)cc3Cl)C2)n1-c1ccc(OC)nc1`: the Kp uu was determined as 0.064.

In the next data set the target is Voltage-gated inwardly rectifying potassium channel KCNH2 (Homo sapiens, UniProt Q12809). The experiment in a line: Inhibition of human ERG.
Voltage-gated inwardly rectifying potassium channel KCNH2, sequence (Q12809 whole entry): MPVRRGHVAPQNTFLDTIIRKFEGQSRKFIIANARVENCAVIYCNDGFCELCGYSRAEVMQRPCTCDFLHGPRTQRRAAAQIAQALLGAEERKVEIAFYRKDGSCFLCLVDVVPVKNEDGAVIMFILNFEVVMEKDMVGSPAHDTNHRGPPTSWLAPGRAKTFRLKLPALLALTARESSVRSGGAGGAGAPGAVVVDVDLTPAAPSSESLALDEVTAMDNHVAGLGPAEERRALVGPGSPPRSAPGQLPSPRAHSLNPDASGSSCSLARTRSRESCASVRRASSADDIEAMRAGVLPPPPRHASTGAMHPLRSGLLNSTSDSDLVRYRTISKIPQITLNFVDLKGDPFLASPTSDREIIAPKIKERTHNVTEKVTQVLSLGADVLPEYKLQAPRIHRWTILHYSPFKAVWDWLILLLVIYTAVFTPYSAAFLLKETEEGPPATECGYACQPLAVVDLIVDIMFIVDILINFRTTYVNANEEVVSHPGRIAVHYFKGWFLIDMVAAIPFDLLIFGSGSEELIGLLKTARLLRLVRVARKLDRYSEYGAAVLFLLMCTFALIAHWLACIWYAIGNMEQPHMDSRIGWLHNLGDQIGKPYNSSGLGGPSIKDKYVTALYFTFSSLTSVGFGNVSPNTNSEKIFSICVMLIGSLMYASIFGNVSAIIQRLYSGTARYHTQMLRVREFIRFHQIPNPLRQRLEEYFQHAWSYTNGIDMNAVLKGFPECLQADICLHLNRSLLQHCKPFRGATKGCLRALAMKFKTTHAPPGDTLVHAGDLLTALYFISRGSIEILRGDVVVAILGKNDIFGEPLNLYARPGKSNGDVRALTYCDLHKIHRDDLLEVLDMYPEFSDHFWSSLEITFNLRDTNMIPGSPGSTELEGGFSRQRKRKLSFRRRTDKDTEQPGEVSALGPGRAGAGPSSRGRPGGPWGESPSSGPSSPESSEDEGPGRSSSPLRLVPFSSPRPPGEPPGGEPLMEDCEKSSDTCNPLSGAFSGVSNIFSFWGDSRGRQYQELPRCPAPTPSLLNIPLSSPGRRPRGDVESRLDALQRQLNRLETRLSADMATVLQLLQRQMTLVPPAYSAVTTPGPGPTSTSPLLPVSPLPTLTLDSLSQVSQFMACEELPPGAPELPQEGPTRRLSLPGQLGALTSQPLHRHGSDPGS
Settings: not given
`CCOCc1nnc(N2C[C@@H]3C[C@]3(c3ccc(F)cc3Cl)C2)n1-c1ccc(OC)nc1`: the 50% inhibitory concentration (IC50) turned out to be 6.1 µM.

A further data set addresses Vasopressin V1a receptor (Homo sapiens, UniProt P37288). The experiment in a line: Antagonist activity at human vasopressin V1A receptor expressed in HEK293 cells assessed as decrease in vasopressin-stimulated calcium flux measured after 10 mins by Fluo-4 dye based microplate reader based assay. It is filed as functional, cell-based.
Settings: not given
In the case of `CCOCc1nnc(N2C[C@@H]3C[C@]3(c3ccc(F)cc3Cl)C2)n1-c1ccc(OC)nc1`, the IC50 came out at 1760 nM.
As to `COc1ccc(-n2c(CO[C@@H]3CCOC3)nnc2N2C[C@@H]3C[C@]3(c3ccc(F)cc3Cl)C2)cn1`, the IC50 was determined as 1980 nM.
Still for that read-out and setting: the figure for `COc1ccc(-n2c(COCCF)nnc2N2C[C@@H]3C[C@]3(c3ccc(F)cc3Cl)C2)cn1` is 819 nM; for `COc1ccc(-n2c(CC#N)nnc2N2C[C@@H]3C[C@]3(c3ccc(F)cc3Cl)C2)cn1` it is 769 nM; for `COCc1nnc(N2C[C@@H]3C[C@]3(c3ccc(F)cc3Cl)C2)n1-c1ccc2c(c1)OCO2` it is 810 nM.
Still for that read-out and setting: as for `COc1ccc(-n2c(C(F)F)nnc2N2C[C@@H]3C[C@]3(c3ccc(F)cc3Cl)C2)cn1`, the figure is 1870 nM; as for `COc1ccc(-n2c(C3CC3)nnc2N2C[C@@H]3C[C@]3(c3ccc(F)cc3Cl)C2)cn1`, 11000 nM.

System in a further data set: not listed separately
The experiment in a line: Clearance in Sprague-Dawley rat at 1 mg/kg, iv measured for 24 hrs by LC-MS/MS analysis. The data set is classed as ADME, organism-based. The note with it: in vivo.
In turn, `CCOCc1nnc(N2C[C@@H]3C[C@]3(c3ccc(F)cc3Cl)C2)n1-c1ccc(OC)nc1` yielded a clearance of 17.8 mL/min/kg.
The same measure, in the same setting: as for `COCc1nnc(N2CCC(c3ccc(F)cc3Cl)CC2)n1-c1ccc(OC)nc1`, the figure is 45 mL/min/kg.

System in the next data set: not listed separately
As to the kind of experiment: Half-life in Sprague-Dawley rat at 2 mg/kg, po measured for 24 hrs by LC-MS/MS analysis. It is filed as ADME, organism-based. The note with it: in vivo.
The molecule `COCc1nnc(N2C[C@@H]3C[C@]3(c3cccc(F)c3Cl)C2)n1-c1ccc(OC)nc1` showed a half-life of 189 min.
`CCOCc1nnc(N2C[C@@H]3C[C@]3(c3ccc(F)cc3Cl)C2)n1-c1ccc(OC)nc1` gave a half-life of 209 min.
The molecule `COCc1nnc(N2CCC(c3ccc(F)cc3Cl)C2)n1-c1ccc(OC)nc1` (stereo not given) showed a half-life of 113 min.
For `COCc1nnc(N2CCC(c3ccc(F)cc3Cl)CC2)n1-c1ccc(OC)nc1`, the half-life is 143 min. The half-life values of the last two molecules are within 1.5-fold of each other.

The subject of a further data set is Rattus norvegicus. As to the kind of experiment: Anti-premature ejaculation activity in anesthetized oxytocin-induced uterine contraction Sprague-Dawley rat model assessed as decrease in intraluminal uterine pressure at 30 mg/kg, po treated for 20 mins and 1 hr later treated with oxytocin and measured for 15 to 30 mins relative to control. The data set is classed as functional.
Settings: not given
In the case of `COCc1nnc(N2CC(Oc3ccc(F)cc3Cl)C2)n1-c1ccc(OC)nc1`, the inhibition in vivo at 30 mg/kg was 76.5%.

System in another data set: not listed separately
The experiment in a line: Drug concentration in Sprague-Dawley rat brain by LC-MS/MS analysis. The data set is classed as ADME, tissue-based. As to conditions: in vivo.
On to `COCc1nnc(N2CC(Oc3ccc(F)cc3Cl)C2)n1-c1ccc(OC)nc1`, for which the Ct came to 179 ng/g.

A further data set has as its target T2, Oxytocin receptor (Homo sapiens, UniProt P30559).
T2 sequence (P30559 whole entry): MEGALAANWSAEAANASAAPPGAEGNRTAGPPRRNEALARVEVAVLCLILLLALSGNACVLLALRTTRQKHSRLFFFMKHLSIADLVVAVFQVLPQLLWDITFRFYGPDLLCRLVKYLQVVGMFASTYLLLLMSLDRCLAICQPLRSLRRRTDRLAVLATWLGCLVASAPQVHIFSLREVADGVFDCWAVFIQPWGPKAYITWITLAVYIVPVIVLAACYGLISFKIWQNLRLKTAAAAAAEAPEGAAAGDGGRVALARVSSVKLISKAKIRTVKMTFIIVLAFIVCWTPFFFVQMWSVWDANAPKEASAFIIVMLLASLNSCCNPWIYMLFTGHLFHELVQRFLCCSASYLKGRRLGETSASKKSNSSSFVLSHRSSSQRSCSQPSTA
The experiment in a line: Antagonist activity at human OTR expressed in HEK293 cells assessed as decrease in calcium flux measured after 10 mins in […] by Fluo-4 dye based microplate reader based assay.
Settings: not given
It is filed as functional, cell-based.
For `COCc1nnc(N2CC(Oc3ccc(F)cc3Cl)C2)n1-c1ccc(OC)nc1`, the IC50 is 23.2 nM.
`COCc1nnc(N2CC3COCC3(c3ccc(F)cc3Cl)C2)n1-c1ccc(OC)nc1` (stereo not given): the IC50 was 2560 nM.
For the molecule `COc1ccc(-n2c(CO[C@H]3CCOC3)nnc2N2C[C@@H]3C[C@]3(c3ccc(F)cc3Cl)C2)cn1`, the concentration for half-maximal inhibition (IC50) turned out to be 184 nM.
Consider `COCc1nnc(N2C[C@@H]3C[C@]3(c3cccc(F)c3Cl)C2)n1-c1ccc(OC)nc1`, for which the IC50 turned out to be 30 nM.
Same read-out and setting: as for `CCOCc1nnc(N2C[C@@H]3C[C@]3(c3ccc(F)cc3Cl)C2)n1-c1ccc(OC)nc1`, the figure is 9.3 nM.
Take `COCc1nnc(N2CC3CN(c4ccc(F)cc4Cl)CC32)n1-c1ccc(OC)nc1` (stereo not given): the IC50 stood at 850 nM.
Same read-out and setting: as for `COc1ccc(-n2c(COC3CCOCC3)nnc2N2C[C@@H]3C[C@]3(c3ccc(F)cc3Cl)C2)cn1`, the figure is 826 nM; as for `COCc1nnc(N2CC3CN(c4ccc(F)cc4Cl)C3C2)n1-c1ccc(OC)nc1` (stereo not given), 121 nM; as for `COCc1nnc(N2CCC(c3ccc(F)cc3Cl)C2)n1-c1ccc(OC)nc1` (stereo not given), 27 nM.
Same read-out and setting: as for `COCc1nnc(N2CCC(c3ccc(F)cc3Cl)CC2)n1-c1ccc(OC)nc1`, the figure is 10 nM; as for `COc1ccc(-n2c(CO[C@@H]3CCOC3)nnc2N2C[C@@H]3C[C@]3(c3ccc(F)cc3Cl)C2)cn1`, 223 nM.
Still for that read-out and setting: the figure for `COCc1nnc(N2C3CCC2CC(Oc2ccc(F)cc2Cl)C3)n1-c1ccc(OC)nc1` (stereo not given) is 1230 nM; for `COCc1nnc(C2CCN(Cc3ccc(F)cc3Cl)CC2)n1-c1ccc(OC)nc1` it is 2790 to 3000 nM.
`COCc1nnc(N2CC3(CCc4cc(F)ccc4O3)C2)n1-c1ccc(OC)nc1`: the half-maximal inhibitory concentration (IC50) was found to be 401 nM.
On the same count and under the same terms, as for `COc1ccc(-n2c(CC#N)nnc2N2C[C@@H]3C[C@]3(c3ccc(F)cc3Cl)C2)cn1`, the figure is 235 nM.
Consider `COCc1nnc(N2CC3(C2)OCc2cc(F)ccc23)n1-c1ccc(OC)nc1`, for which the half-maximal inhibitory concentration (IC50) turned out to be 6760 nM.
On to `CC[C@H](C)[C@@H]1C(=O)N[C@H](C2Cc3ccccc3C2)C(=O)N1[C@@H](C(=O)N1CCOCC1)c1ccc(C)nc1C` [EPELSIBAN], for which the IC50 was found to be 9.2 nM.
On the same count and under the same terms, the figure for `COCc1nnc(N2C[C@H]3C[C@@H](Oc4ccc(F)cc4Cl)C[C@H]3C2)n1-c1ccc(OC)nc1` is 1380 nM.
Still for that read-out and setting: the figure for `COCc1nnc(N2CCN(Cc3ccc(F)cc3Cl)CC2)n1-c1ccc(OC)nc1` is 910 nM; for `COc1ccc(-n2c(C3CC3)nnc2N2C[C@@H]3C[C@]3(c3ccc(F)cc3Cl)C2)cn1` it is 433 nM.
